Results: patent publication US20260354380A1, “PYRAZOLO PESTICIDAL COMPOUNDS” (BASF SE, priority 2022, published 2026)

What was measured:
Type in all cases: in vivo
Plutella xylostella = assay: Action on Diamond Back Moth (Plutella xylostella), cabbage leaf dip, 3rd instar larvae; details: 300 ppm; 3rd instar larvae; 72 hours after treatment
Protocol: Example B6: Action on Diamond Back Moth (Plutella xylostella)
The active compound is dissolved at the desired concentration in a mixture of 1:1 (v/v) distilled water:acetone. Surfactant (Kinetic® HV) is added at a rate of 0.01% (v/v). The test solution is prepared at the day of use.
Leaves of cabbage were dipped in test solution and air-dried. Treated leaves were placed in petri dishes lined with moist filter paper and inoculated with ten 3rd instar larvae. Mortality was recorded 72 hours after treatment. Feeding damages were also recorded using a scale of 0-100%.
(§1) Compounds disclosed in the document WO2021013561 were prepared according to procedures described therein and their pesticidal activities were determined by procedure analogues to the procedures as described above in examples B6 and B7.

Heliothis virescens = assay: Action on Tobacco Budworm (Heliothis virescens); details: 800 ppm; egg and larval mortality; 5 days
Protocol: Example B5: Action on Tobacco Budworm (Heliothis virescens)
For evaluating control of tobacco budworm (Heliothis virescens) the test unit consisted of 96-well-microtiter plates containing an insect diet and 15-25 H. virescens eggs.
The compounds were formulated using a solution containing 75% v/v water and 25% v/v DMSO. Different concentrations of formulated compounds were sprayed onto the insect diet at 10 μl, using a custom-built micro atomizer, at two replications.
After application, microtiter plates were incubated at about 28±1 °C and about 80±5% relative humidity for 5 days. Egg and larval mortality were then visually assessed.

Aedes aegypti = assay: whole plant or invertebrate; details: 800 ppm; larvae; 2 days
Protocol: Example B1: Action on Yellow Fever Mosquito (Aedes aegypti)
For evaluating control of yellow fever mosquito (Aedes aegypti) the test unit consisted of 96-well-microtiter plates containing 200 μl of tap water per well and 5-15 freshly hatched A. aegypti larvae.
The active compounds or mixtures were formulated using a solution containing 75% (v/V) water and 25% (v/v) DMSO. Different concentrations of formulated compounds or mixtures were sprayed onto the insect diet at 2.5 μl, using a custom-built micro atomizer, at two replications. For experimental mixtures in these tests identical volumes of both mixing partners at the desired concentrations respectively, were mixed together.
After application, microtiter plates were incubated at 28±1 °C, 80±5% RH for 2 days. Larval mortality was then visually assessed.

Anthonomus grandis = assay: Action on Boll Weevil (Anthonomus grandis); details: 800 ppm; egg and larval mortality; 5 days
Protocol: Example B3: Action on Boll Weevil (Anthonomus grandis)
For evaluating control of boll weevil (Anthonomus grandis) the test unit consisted of 96-well-microtiter plates containing an insect diet and 5-10 A. grandis eggs.
The compounds were formulated using a solution containing 75% (v/v) water and 25% (v/v) DMSO. Different concentrations of formulated compounds were sprayed onto the insect diet at 5 μl, using a custom-built micro atomizer, at two replications.
After application, microtiter plates were incubated at about 25±1 °C and about 75±5% relative humidity for 5 days. Egg and larval mortality were then visually assessed.

Spodoptera eridania = assay: Action on Southern Armyworm (Spodoptera eridania), 2nd Instar Larvae; details: 300 ppm; 2nd instar larvae; 4 days after treatment
Protocol: Example B7: Action on Southern Armyworm (Spodoptera eridania), 2nd Instar Larvae
The active compounds were formulated by a Tecan liquid handler in 100% cyclohexanone as a 10,000 ppm solution supplied in tubes. The 10,000 ppm solution was serially diluted in 100% cyclohexanone to make interim solutions. These served as stock solutions for which final dilutions were made by the Tecan in 50% acetone: 50% water (v/v) into 10 or 20 ml glass vials. A nonionic surfactant (Kinetic®) was included in the solution at a volume of 0.01% (v/v). The vials were then inserted into an automated electrostatic sprayer equipped with an atomizing nozzle for application to plants/insects.
Lima bean plants (variety Sieva) were grown 2 plants to a pot and selected for treatment at the 1st true leaf stage. Test solutions were sprayed onto the foliage by an automated electrostatic plant sprayer equipped with an atomizing spray nozzle. The plants were dried in the sprayer fume hood and then removed from the sprayer. Each pot was placed into perforated plastic bags with a zip closure. About 10 to 11 armyworm larvae were placed into the bag and the bags zipped closed. Test plants were maintained in a growth room at about 25 °C and about 20-40% relative humidity for 4 days, avoiding direct exposure to fluorescent light (24 hour photoperiod) to prevent trapping of heat inside the bags. Mortality and reduced feeding were assessed 4 days after treatment, compared to untreated control plants.
as §1

`CSc1ccc(C(=O)Nc2cn(-c3ccc(NC(=O)N=C4SCC(=O)N4c4cc(C)ccc4C(C)C)cc3)nc2C)cc1` [Example C-83] was tested, and the “mortality in comparison with untreated controls” value (“mortality in comparison” below) (Plutella xylostella) was “at least 75%”, the “mortality in comparison” value (Heliothis virescens) was “at least 75%” and the “mortality in comparison” value (Aedes aegypti) was “at least 50%”. For the same compound, the “mortality in comparison” value (Anthonomus grandis) was “at least 75%”.
`COC(C)(C)c1ccc(C(=O)Nc2cn(-c3ccc(NC(=O)N=C4SCC(=O)N4c4cc(C)ccc4C(C)C)cc3)nc2C)cc1` [Example C-61] was tested, and the “mortality in comparison” value (Plutella xylostella) was “at least 75%” and the “mortality in comparison” value (Heliothis virescens) was “at least 75%”.
`Cc1ccc(C(C)C)c(N2C(=O)CSC2=NC(=O)Nc2ccc(-n3cc(NC(=O)c4ccc(S(C)(=O)=O)cc4F)c(C)n3)cc2)c1` [Example C-91] was tested, and the “mortality in comparison” value (Plutella xylostella) was “at least 75%”, the “mortality in comparison” value (Heliothis virescens) was “at least 75%” and the “mortality in comparison” value (Spodoptera eridania) was “at least 75%”. The “mortality in comparison” value (Anthonomus grandis) was “at least 75%”.
For `Cc1ccc(C(C)C)c(N2C(=O)CSC2=NC(=O)Nc2ccc(-n3cc(NC(=O)c4ccc(C#CC5CC5)cc4)c(C)n3)cc2)c1` [Example C-72], the “mortality in comparison” value (Heliothis virescens) was “at least 75%”.
In the case of `Cc1ccc(C(C)C)c(N2C(=O)CSC2=NC(=O)Nc2ccc(-n3cc(NC(=O)c4ccc(C(C)C)cc4)c(C)n3)cc2)c1` [Example C-70], the “mortality in comparison” value (Plutella xylostella) is reported as “at least 75%”, the “mortality in comparison” value (Heliothis virescens) is reported as “at least 75%” and the “mortality in comparison” value (Aedes aegypti) is reported as “at least 50%”.
`Cc1ccc(C(C)C)c(N2C(=O)CSC2=NC(=O)Nc2ccc(-n3cc(NC(=O)c4ccc(C5(C#N)CC5)cc4)c(C)n3)cc2)c1` [Example C-86] was tested, and the “mortality in comparison” value (Plutella xylostella) was “at least 75%”, the “mortality in comparison” value (Heliothis virescens) was “at least 75%” and the “mortality in comparison” value (Spodoptera eridania) was “at least 75%”.
`Cc1ccc(C(C)C)c(N2C(=O)CSC2=NC(=O)Nc2ccc(-n3cc(NC(=O)c4ccc(C5CC5(Cl)Cl)cc4)c(C)n3)cc2)c1` (racemic) [Example C-89] was tested, and the “mortality in comparison” value (Plutella xylostella) was “at least 75%”, the “mortality in comparison” value (Heliothis virescens) was “at least 75%” and the “mortality in comparison” value (Spodoptera eridania) was “at least 75%”.
For `Cc1ccc(C(C)C)c(N2C(=O)CS/C2=N\C(=O)Nc2ccc(-n3cc(NC(=O)c4ccc(C#N)cc4)c(C)n3)cc2)c1` [Example C-33], the “mortality in comparison” value (Plutella xylostella) was “at least 75%”, the “mortality in comparison” value (Heliothis virescens) was “at least 75%” and the “mortality in comparison” value (Spodoptera eridania) was “at least 75%”. For the same compound, the “mortality in comparison” value (Anthonomus grandis) was “at least 75%”.
For `Cc1ccc(C(C)C)c(N2C(=O)CSC2=NC(=O)Nc2ccc(-n3cc(NC(=O)c4ccc(OCC#N)cc4)c(C)n3)cc2)c1` [Example C-76], the “mortality in comparison” value (Plutella xylostella) was “at least 75%”, the “mortality in comparison” value (Heliothis virescens) was “at least 75%” and the “mortality in comparison” value (Spodoptera eridania) was “at least 75%”. For the same compound, the “mortality in comparison” value (Anthonomus grandis) was “at least 75%”.
`CCc1ccc(C(=O)Nc2cn(-c3ccc(NC(=O)N=C4SCC(=O)N4c4cc(C)ccc4C(C)C)cc3)nc2C)cc1` [Example C-80] was tested, and the “mortality in comparison” value (Plutella xylostella) was “at least 75%”, the “mortality in comparison” value (Heliothis virescens) was “at least 75%” and the “mortality in comparison” value (Aedes aegypti) was “at least 50%”. For the same compound, the “mortality in comparison” value (Anthonomus grandis) was “at least 75%”.
In the case of `Cc1ccc(C(C)C)c(N2C(=O)CSC2=NC(=O)Nc2ccc(-n3nc(C)c(NC(=O)c4ccc(F)cc4)c3C)cc2Cl)c1` [Example C-124], the “mortality in comparison” value (Spodoptera eridania) is reported as “at least 75%”.
`Cc1ccc(C(C)C)c(N2C(=O)CSC2=NC(=O)Nc2ccc(-n3cc(NC(=O)c4ccc(CC#N)cc4)c(C)n3)cc2)c1` [Example C-78] was tested, and the “mortality in comparison” value (Plutella xylostella) was “at least 75%”, the “mortality in comparison” value (Heliothis virescens) was “at least 75%” and the “mortality in comparison” value (Spodoptera eridania) was “at least 75%”. For the same compound, the “mortality in comparison” value (Anthonomus grandis) was “at least 75%”.
In the case of `C#CCOc1ccc(C(=O)Nc2cn(-c3ccc(NC(=O)N=C4SCC(=O)N4c4cc(C)ccc4C(C)C)cc3)nc2C)cc1` [Example C-67], the “mortality in comparison” value (Plutella xylostella) is reported as “at least 75%”, the “mortality in comparison” value (Heliothis virescens) is reported as “at least 75%” and the “mortality in comparison” value (Spodoptera eridania) is reported as “at least 75%”. For the same compound, the “mortality in comparison” value (Aedes aegypti) was “at least 50%”.
In the case of `Cc1ccc(C(C)C)c(N2C(=O)CSC2=NC(=O)Nc2ccc(-n3cc(NC(=O)c4ccc(C5(F)COC5)cc4)c(C)n3)cc2)c1` [Example C-77], the “mortality in comparison” value (Plutella xylostella) is reported as “at least 75%”, the “mortality in comparison” value (Heliothis virescens) is reported as “at least 75%” and the “mortality in comparison” value (Anthonomus grandis) is reported as “at least 75%”.
With `Cc1ccc(C(C)C)c(N2C(=O)CSC2=NC(=O)Nc2ccc(-n3cc(NC(=O)c4cnc(C#N)nc4)c(C)n3)cc2)c1` [Example C-84] the “mortality in comparison” value (Plutella xylostella) was “at least 75%”.
With `CC(=O)c1ccc(C(=O)Nc2cn(-c3ccc(NC(=O)N=C4SCC(=O)N4c4cc(C)ccc4C(C)C)cc3)nc2C)cc1` [Example C-69] the “mortality in comparison” value (Spodoptera eridania) was “at least 75%”.
With `Cc1ccc(C(C)C)c(N2C(=O)CSC2=NC(=O)Nc2ccc(-n3cc(NC(=O)c4ccc(N(C)C)cc4)c(C)n3)cc2)c1` [Example C-75] the “mortality in comparison” value (Plutella xylostella) was “at least 75%”, the “mortality in comparison” value (Heliothis virescens) was “at least 75%” and the “mortality in comparison” value (Spodoptera eridania) was “at least 75%”. The “mortality in comparison” value (Anthonomus grandis) was “at least 75%”.
For `Cc1ccc(C(C)C)c(N2C(=O)CSC2=NC(=O)Nc2ccc(-n3cc(NC(=O)c4ccc(C5(C)COC5)cc4)c(C)n3)cc2)c1` [Example C-92], the “mortality in comparison” value (Plutella xylostella) was “at least 75%”, the “mortality in comparison” value (Heliothis virescens) was “at least 75%” and the “mortality in comparison” value (Anthonomus grandis) was “at least 75%”.
`CCOc1ccc(C(=O)Nc2cn(-c3ccc(NC(=O)N=C4SCC(=O)N4c4cc(C)ccc4C(C)C)cc3)nc2C)cc1` [Example C-85] was tested, and the “mortality in comparison” value (Plutella xylostella) was “at least 75%”, the “mortality in comparison” value (Heliothis virescens) was “at least 75%” and the “mortality in comparison” value (Spodoptera eridania) was “at least 75%”.
For `Cc1ccc(C(C)C)c(N2C(=O)CSC2=NC(=O)Nc2ccc(-n3cc(NC(=O)c4ccc(Cl)cc4Cl)c(C)n3)cc2Cl)c1` [Example C-132], the “mortality in comparison” value (Spodoptera eridania) was “at least 75%”.
`Cc1ccc(C(C)C)c(N/C(=N/C(=O)Nc2ccc(-n3cc(NC(=O)c4ccc(OC(F)(F)F)cc4)c(C)n3)cc2)SCOC(=O)C(C)C)c1` [Example C-129] was tested, and the “mortality in comparison” value (Plutella xylostella) was “at least 75%”, the “mortality in comparison” value (Heliothis virescens) was “at least 75%” and the “mortality in comparison” value (Aedes aegypti) was “at least 50%”. For the same compound, the “mortality in comparison” value (Anthonomus grandis) was “at least 75%”.
In the case of `C=Cc1ccc(C(=O)Nc2cn(-c3ccc(NC(=O)N=C4SCC(=O)N4c4cc(C)ccc4C(C)C)cc3)nc2C)cc1` [Example C-87], the “mortality in comparison” value (Plutella xylostella) is reported as “at least 75%”, the “mortality in comparison” value (Heliothis virescens) is reported as “at least 75%” and the “mortality in comparison” value (Aedes aegypti) is reported as “at least 50%”. The “mortality in comparison” value (Anthonomus grandis) was “at least 75%”.
With `Cc1ccc(C(C)C)c(N2C(=O)CSC2=NC(=O)Nc2ccc(-n3cc(NC(=O)c4ccc(C#N)nc4)c(C)n3)cc2)c1` [Example C-90] the “mortality in comparison” value (Plutella xylostella) was “at least 75%” and the “mortality in comparison” value (Anthonomus grandis) was “at least 75%”.
For `Cc1ccc(C(C)C)c(N2C(=O)CSC2=NC(=O)Nc2ccc(-n3cc(NC(=O)c4ccc(OC(F)(F)F)cc4)c(C)n3)cc2Cl)c1` [Example C-131], the “mortality in comparison” value (Spodoptera eridania) was “at least 75%”.
